Measurements from article PMC10850145, “Hormonal steroids induce multidrug resistance and stress response genes in Neisseria gonorrhoeae by binding to MtrR” (Nature Communications, 2024).
“And” between values parts separate entries of the source, which are not always exact repeats. Equal entries are not always repeated. Where two headings read alike, the source gives them in different places.

What was measured:
MtrR = biological target: T1, MtrR (Neisseria gonorrhoeae, UniProt P39897); assay: Isothermal titration calorimetry, ligand binding to MtrR WT; settings: ITC
T1 construct: Hexa-histidine tag with TEV protease cleavage site (N, cleaved yes); made in house; host or cells: E. coli Rosetta Gami B(DE3) pLysS

MtrR R176E = biological target: T2, MtrR R176E (Neisseria gonorrhoeae, UniProt P39897, R176E); assay: biochemical; assay type: binding
T2 construct: Hexa-histidine tag with TEV protease cleavage site (N, cleaved yes); made in house; host or cells: E. coli Rosetta Gami B(DE3) pLysS

[1] = biological target: T3, MtrR binding to rpoH operator (27mer) (Neisseria gonorrhoeae, UniProt P39897); assay: Fluorescence polarization based DNA binding assay, rpoH operator; settings: rpoH 27mer + 125 µM steroid
T3 construct: Hexa-histidine tag with TEV protease cleavage site (N, cleaved yes); made in house; host or cells: E. coli Rosetta Gami B(DE3) pLysS
Procedure: (§1) Fluorescence polarization based-DNA binding data were collected using a Panvera Beacon 2000 fluorescence polarization system (Invitrogen) and analyzed with Prism (Graphpad Software 9, 10). Purified MtrR was buffer exchanged into “DNA” binding buffer (150 mM NaCl, 20 mM Tris-HCl pH 7.5, 2.5% glycerol, 1 mM TCEP). […] The reported oligoduplexes containing the rpoH and mtrCDE binding site differ in lengths, 27mer and 21mer, respectively[17],[21]. […] BSA and dI-dC are included as carriers and to control for nonspecific DNA binding. Samples were excited at 490 nm and polarized emissions measured at 530 nm. Controls were run with no protein (DNA ± methanol, hormonal steroids) to ensure that millipolarization values were not affected by experimental conditions alone. The binding affinity of protein for DNA was determined using the following equation: P = Pf + (Pb – Pf) [M] / (Kd + [M]) where P is the measured polarization, Pf is the polarization of free DNA, Pb is the polarization of the completely bound DNA, Kd is the equilibrium dissociation constant, and M is the concentration of protein. Pb and Kd were determined by nonlinear least-squares analysis. At least three independent experimental measurements were averaged for each reported binding constant.

[2] = biological target: T4, MtrR binding to mtrCDE operator (21mer) (Neisseria gonorrhoeae, UniProt P39897); assay: Fluorescence polarization based DNA binding assay, mtrCDE operator; settings: mtrCDE 21mer + 125 µM steroid
T4 construct: Hexa-histidine tag with TEV protease cleavage site (N, cleaved yes); made in house; host or cells: E. coli Rosetta Gami B(DE3) pLysS
Procedure: as §1

wild type FA19 = assay: Antimicrobial susceptibility spot assay with hormone plus azithromycin or polymyxin B, wild type FA19; assay type: cell-based, Neisseria gonorrhoeae
Procedure: Fig. 5 Effect of steroidal hormones on gonococcal antimicrobial susceptibility.
To determine the minimal inhibitory concentrations (MICs) by the steroidal hormones and their effect on antimicrobial susceptibility, 5 x 10^5 CFU and 1:5 serial dilutions of gonococcal strains were spotted on GC agar plates containing different concentrations of antibiotics and/or hormones as indicated. Antimicrobial susceptibility was assessed after 24 h incubation.

rpoH-lacZ expression = assay type: cell-based, Neisseria gonorrhoeae
[3] = rpoH-lacZ, ΔmtrR + mtrR D171A in trans, 6.25 µM hormone, single replicate

T3 sequence (P39897 whole entry): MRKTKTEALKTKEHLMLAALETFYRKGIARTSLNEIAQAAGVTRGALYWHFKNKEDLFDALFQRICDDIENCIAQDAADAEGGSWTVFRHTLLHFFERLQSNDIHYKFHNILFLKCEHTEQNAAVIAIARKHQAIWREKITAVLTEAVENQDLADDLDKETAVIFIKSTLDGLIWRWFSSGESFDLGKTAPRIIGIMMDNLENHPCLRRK
T1 sequence (P39897 whole entry): as above
T4 sequence (P39897 whole entry): as above
T2 sequence (P39897 whole entry R176E): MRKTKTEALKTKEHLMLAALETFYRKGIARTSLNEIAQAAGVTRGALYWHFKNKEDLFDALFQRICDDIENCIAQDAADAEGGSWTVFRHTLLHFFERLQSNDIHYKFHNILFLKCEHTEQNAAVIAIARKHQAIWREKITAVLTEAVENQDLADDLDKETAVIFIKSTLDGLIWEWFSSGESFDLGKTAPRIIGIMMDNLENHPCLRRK

## C[C@]12CC[C@@H]3c4ccc(O)cc4CC[C@H]3[C@@H]1CC[C@@H]2O [β-Estradiol, β-estradiol]
MtrR
  binding stoichiometry N (ligand per MtrR): ~ 1
MtrR; 25 °C, 1% MeOH, read-out: equilibrium dissociation constant (Kd), MtrR WT
  Kd: 1.67 µM and ~1.67 µM
MtrR; listed as EST
  binding stoichiometry N (ligand per MtrR): one molecule of steroid per MtrR monomer
MtrR R176E
  Kd: 0.72 ± 0.15 µM
[1]; MtrR WT dimer 0.00 nM
  fluorescence polarization, MtrR titration: 0.00 mP
[1]; MtrR WT dimer 25.90 nM
  fluorescence polarization, MtrR titration: 3.74 mP and 5.72 mP and 6.73 mP
[1]; MtrR WT dimer 35.50 nM
  fluorescence polarization, MtrR titration: 6.01 mP and 7.12 mP and 8.13 mP
[1]; MtrR WT dimer 54.52 nM
  fluorescence polarization, MtrR titration: 8.01 mP and 9.55 mP and 10.56 mP
[1]; MtrR WT dimer 73.35 nM
  fluorescence polarization, MtrR titration: 11.39 mP and 12.36 mP
[1]; MtrR WT dimer 110.67 nM
  fluorescence polarization, MtrR titration: 12.31 mP and 14.15 mP and 15.93 mP
[1]; MtrR WT dimer 147.65 nM
  fluorescence polarization, MtrR titration: 15.17 mP and 15.72 mP and 17.43 mP
[1]; MtrR WT dimer 220.59 nM
  fluorescence polarization, MtrR titration: 18.17 mP and 19.19 mP and 21.36 mP
[1]; MtrR WT dimer 292.55 nM
  fluorescence polarization, MtrR titration: 20.01 mP and 21.72 mP and 23.36 mP
[1]; MtrR WT dimer 363.86 nM
  fluorescence polarization, MtrR titration: 21.41 mP and 22.99 mP and 26.06 mP
[1]; MtrR WT dimer 434.54 nM
  fluorescence polarization, MtrR titration: 23.51 mP and 24.99 mP and 26.53 mP
[1]; MtrR WT dimer 504.61 nM
  fluorescence polarization, MtrR titration: 25.37 mP and 27.45 mP and 28.59 mP
[1]; MtrR WT dimer 574.07 nM
  fluorescence polarization, MtrR titration: 29.37 mP and 27.75 mP and 29.19 mP
[2]; MtrR WT dimer 0.00 nM
  fluorescence polarization, MtrR titration: 0.00 mP
[2]; MtrR WT dimer 6.35 nM
  fluorescence polarization, MtrR titration: 4.51 mP and 6.27 mP and 3.99 mP
[2]; MtrR WT dimer 11.32 nM
  fluorescence polarization, MtrR titration: 5.41 mP and 7.10 mP and 5.13 mP
[2]; MtrR WT dimer 16.21 nM
  fluorescence polarization, MtrR titration: 7.14 mP and 8.80 mP and 6.33 mP
[2]; MtrR WT dimer 35.50 nM
  fluorescence polarization, MtrR titration: 8.94 mP and 8.19 mP
[2]; MtrR WT dimer 73.35 nM
  fluorescence polarization, MtrR titration: 10.97 mP and 13.97 mP and 11.09 mP
[2]; MtrR WT dimer 110.67 nM
  fluorescence polarization, MtrR titration: 13.61 mP and 15.83 mP and 13.69 mP
[2]; MtrR WT dimer 147.65 nM
  fluorescence polarization, MtrR titration: 16.87 mP and 18.60 mP and 16.09 mP
[2]; MtrR WT dimer 220.59 nM
  fluorescence polarization, MtrR titration: 20.11 mP and 24.13 mP and 19.63 mP
[2]; MtrR WT dimer 292.55 nM
  fluorescence polarization, MtrR titration: 24.17 mP and 25.77 mP and 23.16 mP
[2]; MtrR WT dimer 363.86 nM
  fluorescence polarization, MtrR titration: 26.44 mP and 29.33 mP and 25.99 mP
[2]; MtrR WT dimer 434.54 nM
  fluorescence polarization, MtrR titration: 30.01 mP and 30.57 mP and 27.99 mP
[2]; MtrR WT dimer 504.61 nM
  fluorescence polarization, MtrR titration: 31.07 mP and 33.77 mP and 30.59 mP
[2]; MtrR WT dimer 574.07 nM
  fluorescence polarization, MtrR titration: 34.21 mP and 36.80 mP and 32.93 mP
[2]; MtrR WT dimer 711.46 nM
  fluorescence polarization, MtrR titration: 37.61 mP and 38.13 mP and 35.23 mP
[2]; MtrR WT dimer 848.00 nM
  fluorescence polarization, MtrR titration: 39.37 mP and 41.63 mP and 41.06 mP
Wild type FA19; strain FA19
  resistance to polymyxin B in presence of hormone: increased resistance
Wild type FA19; wild-type FA19, GC agar, 24 h, visual
  resistance to azithromycin in presence of sub-lethal hormone: elevated levels of resistance
rpoH-lacZ expression; Mean of plate rows 5-8, plate columns 1-6 (first strain), 6.25 µM hormone
  Miller units, Mean: 42 Miller units
rpoH-lacZ expression; Mean of plate rows 5-8, plate columns 1-6 (first strain), 12.5 µM hormone
  Miller units, Mean: 61 Miller units
rpoH-lacZ expression; Mean of plate rows 5-8, plate columns 1-6 (first strain), 25 µM hormone
  Miller units, Mean: 70 Miller units
rpoH-lacZ expression; Mean of plate rows 5-8, plate columns 1-6 (first strain), 50 µM hormone
  Miller units, Mean: 78 Miller units
rpoH-lacZ expression; Mean of plate rows 5-8, plate columns 7-12 (second strain), 6.25 µM hormone
  Miller units, Mean: 73.6 Miller units
rpoH-lacZ expression; Mean of plate rows 5-8, plate columns 7-12 (second strain), 12.5 µM hormone
  Miller units, Mean: 75.3 Miller units
rpoH-lacZ expression; Mean of plate rows 5-8, plate columns 7-12 (second strain), 25 µM hormone
  Miller units, Mean: 76.5 Miller units
rpoH-lacZ expression; Mean of plate rows 5-8, plate columns 7-12 (second strain), 50 µM hormone
  Miller units, Mean: 79.6 Miller units
rpoH-lacZ expression; complemented (MtrR+) strains, increasing hormone
  induction of rpoH expression: could be induced
rpoH-lacZ expression; loss of MtrR or MtrR-D171A strain
  induction of rpoH expression: abrogated
rpoH-lacZ expression; [3]
  Miller units: 73 Miller units
  β-galactosidase activity (Miller units): 64 Miller units and 67 Miller units and 90 Miller units
rpoH-lacZ expression; rpoH-lacZ, ΔmtrR + mtrR D171A in trans, 12.5 µM hormone, single replicate
  Miller units: 67 Miller units
